The subject of one assay is iNOS. It is filed as cell-based, Mouse.
A further assay concerns influenza. The settings on record: human, in vivo.
The next assay has as its system PR8 influenza virus. The settings on record: mouse, in vivo.
Another assay concerns HSV-1. It is filed as in vivo, Kunming mice. The settings on record: n 15.
In another assay the test system is Staphylococcus aureus. It counts as in vivo, ICR mice. The note with it: n = 10.
In another assay the test system is Streptococcus pneumoniae. It counts as in vivo, ICR mice. The note with it: n = 10.
The subject of assay [1] is Mycoplasma pneumoniae (ATCCFH15531). It is filed as in vivo, BALB/C mice.
A further assay has as its system Pseudomonas aeruginosa. It counts as in vivo, BAL B/C male mice. The settings on record: 14 days.

“Also recorded” adds a separate entry of the source. Marks after values point to notes of the source that are not given here.

Turning to 6S-5-methyltetrahydrofolate calcium, the “expression of iNOS in macrophages induced by LPS” value (“expression of iNOS” below) with iNOS is “did not affect expression of iNOS; also recorded: almost no effect”. In addition, in the assay with influenza, the “Mean disappearance time: Cough” value is 35.7 h; the “Mean disappearance time: Dizziness and fullness in head” value was 28.5 h; the “Mean disappearance time: Dry and itchy throat” value was found to be 15.0 h; the “Mean disappearance time: Fatigue” value is 14.1 h. In addition, in the assay with influenza, the “Mean disappearance time: Headache” value worked out at 13.7 h; the “Mean disappearance time: Inappetence” value came to 13.0 h; the “Mean disappearance time: Intolerance of cold and cold limbs” value is 10.0 h; the “Mean disappearance time: Low fever” value worked out at 10.0 h. For the same molecule, in the assay on influenza, the “Mean disappearance time: Muscular soreness” value amounted to 14.9 h, the “Mean disappearance time: Nasal stuffiness” value stood at 23.0 h, the “Mean disappearance time: Running nose” value turned out to be 20.6 h and the “Mean disappearance time: Sneezing” value is 18.1 h. Further, in the assay on influenza, the “Mean disappearance time: Sore throat” value turned out to be 29.4 h; the “Mean time: Basic rehabilitation” value was 27.4 h; the “Mean time: Complete rehabilitation” value amounted to 32.9 h; the “disappearance time of symptoms: Dry and itchy throat” value came to 15 h. In addition, in the assay on influenza, the “disappearance time of symptoms: Inappetence” value came to 13 h; the “disappearance time of symptoms: Intolerance of cold and cold limbs” value was 10 h; the “disappearance time of symptoms: Low fever” value came out at 10 h; the “time in which the patients' influenza almost all healed” value is not above 2 days. Further, the “condition of the administration group (body weight, body temperature, food intake, water intake, survival curves)” value with PR8 influenza virus was “greatly improved”. Besides, in the assay on Macrophage RAW264.7, the “secretion of NO in macrophages” value is on record as “promote the secretion of NO”. In the assay with TNF-α, IL-1α, IL-6, the “expression of macrophages and inflammatory factors induced by LPS” value was “no significant effect”.

Take `Nc1nc2c(ncn2COCCO)c(=O)[nH]1` [Acyclovir, acyclovir]: in the assay with HSV-1, the Mortality is on record as 60%; the “Number of deaths, 48 h” value was determined as 0; the “Number of deaths, D4” value is reported as 4; the “Number of deaths, D7” value is given as 5.

`CC1(C)S[C@@H]2[C@H](NC(=O)[C@H](N)c3ccc(O)cc3)C(=O)N2[C@H]1C(=O)O` [Amoxicillin, amoxicillin]: the “Survival rate, Staphylococcus aureus” value with Staphylococcus aureus is given as 70** %. In the assay on Streptococcus pneumoniae, the “Survival rate, Streptococcus pneumoniae” value is reported as 50* %.

As to `NC(=O)c1ccc[n+]([C@@H]2O[C@H](COP(=O)([O-])O)[C@@H](O)[C@H]2O)c1` [NMN, nicotinamide mononucleotide], the “expression of iNOS” value in the assay on iNOS is given as “did not affect expression of iNOS; also recorded: almost no effect”.

Consider `CC[C@H]1OC(=O)[C@H](C)[C@@H](O[C@H]2C[C@@](C)(OC)[C@@H](O)[C@H](C)O2)[C@H](C)[C@@H](O[C@@H]2O[C@H](C)C[C@H](N(C)C)[C@H]2O)[C@](C)(O)C[C@@H](C)CN(C)[C@H](C)[C@@H](O)[C@]1(C)O` [azithromycin], for which the “Histopathological examination of the lung tissue” value in [1] (10 days) is reported as “Mild interstitial pneumonia”. In assay [1] (mouse, in vivo), this molecule gave a Splenic index of 4.515 ± 0.982 mg/g and a Thymic index of 3.818 ± 1.232 mg/g.

Turning to `O=C1O[C@H]([C@@H](O)CO)C(=O)C1=O` [dehydroascorbic acid], the “expression of iNOS” value in the assay on iNOS is recorded as “almost no effect”.

Regarding `N[C@@H](CCC(=O)N[C@@H](CS)C(=O)NCC(=O)O)C(=O)O` [glutathione, reference compound], the “expression of iNOS” value with iNOS is on record as “did not affect expression of iNOS; also recorded: almost no effect”.

`C[C@@H](O)[C@H]1C(=O)N2C(C(=O)O)=C(S[C@@H]3CN[C@H](C(=O)N(C)C)C3)[C@H](C)[C@H]12` [meropenem]: the “survival of mice infected with the fatal dose of Pseudomonas aeruginosa” value in the assay with Pseudomonas aeruginosa was found to be 100%.

penicillin: in the assay on Pseudomonas aeruginosa, the “survival of mice infected with the fatal dose of Pseudomonas aeruginosa” value is listed as “all the mice in the penicillin group died”.

The values above are taken from patent US20220280508A1 (priority 2019, published 2022).
